Structures can show the parent of a compound that is named as a salt. Where two headings read alike, the source gives them in different places. Values belong to the compound of their own block, whether it stands above or below them.
What was measured:
[1] = target: T1, α1b-AR (Homo sapiens, UniProt P35368); assay: α1-Adrenergic receptor radio-ligand binding assay, α1b subtype
T1 construct: expressed in transfected cells; host or cells: COS-7 cells (membranes)
T1 sequence (P35368 1-520): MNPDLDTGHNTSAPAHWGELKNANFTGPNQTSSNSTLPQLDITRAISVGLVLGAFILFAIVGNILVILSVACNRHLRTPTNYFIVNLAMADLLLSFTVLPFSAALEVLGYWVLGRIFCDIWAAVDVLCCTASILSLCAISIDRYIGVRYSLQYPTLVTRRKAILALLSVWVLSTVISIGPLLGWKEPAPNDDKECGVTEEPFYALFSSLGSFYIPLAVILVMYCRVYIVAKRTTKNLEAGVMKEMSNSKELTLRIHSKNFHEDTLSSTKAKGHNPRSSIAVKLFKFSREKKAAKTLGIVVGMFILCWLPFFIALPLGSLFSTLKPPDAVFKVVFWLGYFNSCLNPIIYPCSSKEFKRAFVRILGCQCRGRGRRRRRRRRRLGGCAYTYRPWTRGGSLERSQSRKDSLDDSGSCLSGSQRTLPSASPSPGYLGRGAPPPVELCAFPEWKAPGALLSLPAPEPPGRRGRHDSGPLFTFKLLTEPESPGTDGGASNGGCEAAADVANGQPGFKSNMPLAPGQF
Procedure: (§1) Membranes were prepared from COS-7 cells (African Green monkey kidney SV40-transformed cells) that had been transfected with one of the three α1-AR subtypes (Genbank accession number for the α1a subtype: AF013261; Genbank accession number for the α1b subtype: NM000679; Genbank accession number for the α1d subtype: NM000678) using the following method: COS cells from ten 100 mm tissue culture plates were scraped into a 5 mL volume of TE (a mixture of 50 mM Tris-HCl, 5 mM EDTA, pH 7.4). […] The disrupted cells were centrifuged at 1000×g for 10 min at 4° C. Supernatants were centrifuged at 34,500×g for 20 min at 4° C. The membrane pellets were suspended in a 2 mL volume of TNE (a mixture of 50 mM Tris-HCl, 5 mM EDTA and 150 mM NaCl at pH 7.4). An aliquot of the membrane suspension was stored at −70° C. until use. The protein concentration was determined using the BioRad “DC” protein assay kit following membrane solubilization with Triton X-100.
(§2) Triplicate determinations of radio-ligand binding in the presence of increasing concentrations of testing compound were made. The reagents were added to 96-well polypropylene plate wells. […] The plate was incubated at rt for 1 hr. The contents of the wells were filtered through a glass filter (type C) (GF/C) membrane Unifilter plate (Packard Instruments) using the Packard Filtermate cell harvester. The filter plates were dried in a vacuum oven for 30 min at 40° C. 25 μL Microscint 20 liquid scintillation fluid (Packard Instuments) was added to each well. The radioactive content was analyzed in the TopCount microplate scintillation counter (Packard Instruments).

[2] = target: T2, α1a-AR (Homo sapiens, UniProt P35348); assay: α1-Adrenergic receptor radio-ligand binding assay, α1a subtype
T2 construct: expressed in transfected cells; host or cells: COS-7 cells (membranes)
T2 sequence (P35348 1-455 isoform P35348-4): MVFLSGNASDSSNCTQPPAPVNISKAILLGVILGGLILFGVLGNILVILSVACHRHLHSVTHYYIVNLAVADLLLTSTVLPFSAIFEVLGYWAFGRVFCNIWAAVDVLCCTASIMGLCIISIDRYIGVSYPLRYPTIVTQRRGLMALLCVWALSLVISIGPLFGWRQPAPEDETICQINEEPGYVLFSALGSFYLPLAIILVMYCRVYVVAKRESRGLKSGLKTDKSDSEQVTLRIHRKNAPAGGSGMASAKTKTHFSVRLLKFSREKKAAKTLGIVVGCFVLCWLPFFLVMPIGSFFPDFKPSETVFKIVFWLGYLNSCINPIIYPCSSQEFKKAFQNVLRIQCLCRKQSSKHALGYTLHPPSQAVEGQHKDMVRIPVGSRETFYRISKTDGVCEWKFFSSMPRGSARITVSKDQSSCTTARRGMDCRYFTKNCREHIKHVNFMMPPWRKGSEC
Procedure: as §1, §2

[3] = target: T3, α1d-AR (Homo sapiens, UniProt P25100); assay: α1-Adrenergic receptor radio-ligand binding assay, α1d subtype
T3 construct: expressed in transfected cells; host or cells: COS-7 cells (membranes)
T3 sequence (P25100 1-572): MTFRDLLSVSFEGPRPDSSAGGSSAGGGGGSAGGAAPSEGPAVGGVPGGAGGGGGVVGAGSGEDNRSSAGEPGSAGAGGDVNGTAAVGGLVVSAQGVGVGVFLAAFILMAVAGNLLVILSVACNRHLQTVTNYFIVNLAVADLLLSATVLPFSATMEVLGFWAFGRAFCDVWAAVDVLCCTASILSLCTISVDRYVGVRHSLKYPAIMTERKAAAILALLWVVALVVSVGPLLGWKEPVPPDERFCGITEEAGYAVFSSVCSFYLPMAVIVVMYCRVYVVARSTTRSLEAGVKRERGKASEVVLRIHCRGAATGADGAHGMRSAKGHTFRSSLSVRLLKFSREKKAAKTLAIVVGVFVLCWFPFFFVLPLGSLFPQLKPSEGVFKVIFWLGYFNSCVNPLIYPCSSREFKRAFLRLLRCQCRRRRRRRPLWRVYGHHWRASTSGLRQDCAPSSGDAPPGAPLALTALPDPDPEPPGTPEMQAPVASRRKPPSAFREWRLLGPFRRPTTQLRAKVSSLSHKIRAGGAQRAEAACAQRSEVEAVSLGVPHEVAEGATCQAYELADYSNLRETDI
Procedure: as §1, §2

[4] = 125I-HEAT, membranes of COS-7 cells transfected with α1b subtype, rt 1 hr, read-out: Receptor Binding, Ki α1b-AR
[5] = 125I-HEAT, membranes of COS-7 cells transfected with α1a subtype, rt 1 hr, read-out: Receptor Binding, Ki α1a-AR
[6] = 125I-HEAT, membranes of COS-7 cells transfected with α1d subtype, rt 1 hr, read-out: Receptor Binding, Ki α1d-AR

SMILES: COc1ccc(S(=O)(=O)N[C@H]2CC[C@@H](N3CCC(c4ccccc4OC(C)C)CC3)CC2)cc1OC (as salt: fumarate) [Cpd 1, N-cis-{4-[4-(2-isopropoxy-phenyl)-piperidin-1-yl]-cyclohexyl}-3,4-dimethoxy-benzenesulfonamide]
- melting point: 221 °C

SMILES: COc1ccc(S(=O)(=O)N[C@H]2CC[C@@H](N3CCC(c4ccccc4OCC(F)(F)F)CC3)CC2)cc1OC (as salt: fumarate) [Cpd 5, 3,4-dimethoxy-N-cis-(4-{4-[2-(2,2,2-trifluoro-ethoxy)-phenyl]-piperidin-1-yl}-cyclohexyl)-benzenesulfonamide]
- melting point: 201 °C (dec.)

SMILES: CC(C)Oc1ccccc1C1CCN([C@H]2CC[C@@H](NS(=O)(=O)c3ccc(F)c(F)c3)CC2)CC1 [Cpd 3, 3,4-difluoro-N-cis-{4-[4-(2-isopropoxy-phenyl)-piperidin-1-yl]-cyclohexyl}-benzenesulfonamide]
- Ki [1, 4]: 0.47 µM
- melting point: 176 °C
- Ki [2, 5]: 0.003 µM
- Ki [3, 6]: 0.0073 µM

SMILES: CC(C)Oc1ccccc1C1CCN([C@H]2CC[C@H](NS(=O)(=O)c3ccc(F)c(F)c3)CC2)CC1 [Cpd 4, 3,4-difluoro-N-trans-{4-[4-(2-isopropoxy-phenyl)-piperidin-1-yl]-cyclohexyl}-benzenesulfonamide]
- melting point: 239 °C
- Ki [3]: 0.0886 µM

SMILES: O=S(=O)(N[C@H]1CC[C@@H](N2CCC(c3ccccc3OCC(F)(F)F)CC2)CC1)c1ccc2c(c1)OCCO2 [Cpd 13, 2,3-dihydro-benzo[1,4]dioxine-6-sulfonic acid cis-(4-{4-[2-(2,2,2-trifluoro-ethoxy)-phenyl]-piperidin-1-yl}-cyclohexyl)-amide]
- Ki [1]: 0.092 µM
- melting point: 190 °C
- Ki [2]: 0.004 µM
- Ki [3]: 0.003 µM

SMILES: O=S(=O)(N[C@H]1CC[C@H](N2CCC(c3ccccc3OCC(F)(F)F)CC2)CC1)c1ccc2c(c1)OCCO2 [Cpd 14, 2,3-dihydro-benzo[1,4]dioxine-6-sulfonic acid trans-(4-{4-[2-(2,2,2-trifluoro-ethoxy)-phenyl]-piperidin-1-yl}-cyclohexyl)-amide]
- Ki [1]: 0.0906 µM
- melting point: 146 °C
- Ki [2]: 0.0022 µM
- Ki [3]: 0.026 µM

SMILES: COc1ccc(Cl)cc1S(=O)(=O)N[C@H]1CC[C@@H](N2CCC(c3ccccc3OCC(F)(F)F)CC2)CC1 [Cpd 17, 5-chloro-2-methoxy-N-cis-(4-{4-[2-(2,2,2-trifluoro-ethoxy)-phenyl]-piperidin-1-yl}-cyclohexyl)-benzenesulfonamide]
- Ki [1, 4]: 0.216 µM
- melting point: 200 °C
- Ki [2, 5]: 0.0062 µM
- Ki [3]: 0.0015 µM

SMILES: COc1ccc(Cl)cc1S(=O)(=O)N[C@H]1CC[C@H](N2CCC(c3ccccc3OCC(F)(F)F)CC2)CC1 [Cpd 18, 5-chloro-2-methoxy-N-trans-(4-{4-[2-(2,2,2-trifluoro-ethoxy)-phenyl]-piperidin-1-yl}-cyclohexyl)-benzenesulfonamide]
- Ki [1, 4]: 0.703 µM
- melting point: 197 °C
- Ki [2]: 0.0104 µM
- Ki [3, 6]: 0.0359 µM

- Ki [1, 4]: 0.181 µM
- melting point: 204 °C
- Ki [2]: 0.0058 µM
- Ki [3, 6]: 0.00097 µM
SMILES: O=S(=O)(N[C@H]1CC[C@@H](N2CCC(c3ccccc3OCC(F)(F)F)CC2)CC1)c1cc(Cl)ccc1F [Cpd 19, 5-chloro-2-fluoro-N-cis-(4-{4-[2-(2,2,2-trifluoro-ethoxy)-phenyl]-piperidin-1-yl}-cyclohexyl)-benzenesulfonamide]

- Ki [1, 4]: 0.786 µM
- melting point: 227 °C
- Ki [2]: 0.0047 µM
- Ki [3, 6]: 0.0439 µM
SMILES: O=S(=O)(N[C@H]1CC[C@H](N2CCC(c3ccccc3OCC(F)(F)F)CC2)CC1)c1cc(Cl)ccc1F [Cpd 20, 5-chloro-2-fluoro-N-trans-(4-{4-[2-(2,2,2-trifluoro-ethoxy)-phenyl]-piperidin-1-yl}-cyclohexyl)-benzenesulfonamide]

SMILES: O=S(=O)(N[C@H]1CC[C@@H](N2CCC(c3ccccc3OCC(F)(F)F)CC2)CC1)c1cccc(OC(F)F)c1 [Cpd 23, 3-difluoromethoxy-N-cis-(4-{4-[2-(2,2,2-trifluoro-ethoxy)-phenyl]-piperidin-1-yl}-cyclohexyl)-benzenesulfonamide]
- Ki [1, 4]: 0.261 µM
- melting point: 105 °C
- Ki [2, 5]: 0.007 µM
- Ki [3, 6]: 0.0059 µM

SMILES: O=S(=O)(N[C@H]1CC[C@H](N2CCC(c3ccccc3OCC(F)(F)F)CC2)CC1)c1cccc(OC(F)F)c1 [Cpd 24, 3-difluoromethoxy-N-trans-(4-{4-[2-(2,2,2-trifluoro-ethoxy)-phenyl]-piperidin-1-yl}-cyclohexyl)-benzenesulfonamide]
- Ki [1, 4]: 0.355 µM
- melting point: 169 °C
- Ki [2, 5]: 0.012 µM
- Ki [3, 6]: 0.07 µM

SMILES: O=S(=O)(N[C@H]1CC[C@@H](N2CCC(c3ccccc3OCC(F)(F)F)CC2)CC1)c1ccc(OC(F)F)cc1 [Cpd 25, 4-difluoromethoxy-N-cis-(4-{4-[2-(2,2,2-trifluoro-ethoxy)-phenyl]-piperidin-1-yl}-cyclohexyl)-benzenesulfonamide]
- Ki [1, 4]: 0.076 µM
- melting point: 196 °C
- Ki [2, 5]: 0.0054 µM
- Ki [3, 6]: 0.0027 µM

SMILES: O=S(=O)(N[C@H]1CC[C@H](N2CCC(c3ccccc3OCC(F)(F)F)CC2)CC1)c1ccc(OC(F)F)cc1 [Cpd 26, 4-difluoromethoxy-N-trans-(4-{4-[2-(2,2,2-trifluoro-ethoxy)-phenyl]-piperidin-1-yl}-cyclohexyl)-benzenesulfonamide]
- Ki [1, 4]: 0.302 µM
- melting point: 155 °C
- Ki [2]: 0.0375 µM
- Ki [3, 6]: 0.0857 µM

SMILES: COc1ccc(S(=O)(=O)N[C@H]2CC[C@@H](N3CCC(c4ccccc4OCCF)CC3)CC2)cc1OC [Cpd 27, N-cis-(4-{4-[2-(2-fluoro-ethoxy)-phenyl]-piperidin-1-yl}-cyclohexyl)-3,4-dimethoxy-benzenesulfonamide]
- Ki [1, 4]: 0.354 µM
- melting point: 225 °C
- Ki [2, 5]: 0.0109 µM
- Ki [3, 6]: 0.0088 µM

SMILES: COc1ccc(S(=O)(=O)N[C@H]2CC[C@H](N3CCC(c4ccccc4OCCF)CC3)CC2)cc1OC [Cpd 28, N-trans-(4-{4-[2-(2-fluoro-ethoxy)-phenyl]-piperidin-1-yl}-cyclohexyl)-3,4-dimethoxy-benzenesulfonamide]
- Ki [1, 4]: 4.4 µM
- melting point: 142 °C
- Ki [2, 5]: 0.0688 µM
- Ki [3, 6]: 0.0486 µM
